Test results from ChEMBL document CHEMBL5104182, “Design and Synthesis of a 2-Amino-pyridine Derivative as a Potent CDK8 Inhibitor for Anti-colorectal Cancer Therapy” (J Med Chem, 2022).
Active and inactive are the calls of the source. No cut-off for these calls is given here.

Experiments:
HCT-116 [1] = test: Induction of cell cycle arrest in human HCT-116 cells assessed as increase in cells at G2/M phase measured after 48 hrs by flow cytometry; format: functional, cell-based
[2] = Toxicity in ICR mouse assessed as heart damage at 1000 mg/kg, using gastric tube by H&E staining assay; format: organism-based; conditions: in vivo, po, route ig
HCT-116 [3] = test: Decrease in Dvl2 expression in human HCT-116 cells at 1 to 4 uM incubated for 12 hrs by western blotting analysis; format: functional, cell-based; conditions: dose 1-4 µM
[4] = Tmax in Sprague-Dawley rat at 10 mg/kg, po upto 24 hrs by HPLC analysis; format: ADME, organism-based; conditions: in vivo
HCT-116 [5] = test: Antiproliferative activity against sorafenib-resistant human HCT-116 cells assessed as cell viability incubated for 48 hrs by MTT assay; format: functional
[6] = Toxicity in ICR mouse assessed as spleen damage at 1000 mg/kg, using gastric tube by H&E staining assay; format: organism-based; conditions: in vivo, po, route ig
HCT-116 [7] = test: Induction of cell cycle arrest in human HCT-116 cells assessed as increase in cells at S phase measured after 48 hrs by flow cytometry; format: functional, cell-based
[8] = Half life in Sprague-Dawley rat at 2 mg/kg, iv upto 24 hrs by HPLC analysis; format: ADME, organism-based; conditions: in vivo
[9] = biological target: T1, Cyclin-dependent kinase 8 (Homo sapiens, UniProt P49336); test: Inhibition of CDK8 in human HCT-116 cells assessed as inhibition of […] phosphorylation at Tyr701 by Western blot analysis; format: cell-based
T1 sequence (P49336 whole entry): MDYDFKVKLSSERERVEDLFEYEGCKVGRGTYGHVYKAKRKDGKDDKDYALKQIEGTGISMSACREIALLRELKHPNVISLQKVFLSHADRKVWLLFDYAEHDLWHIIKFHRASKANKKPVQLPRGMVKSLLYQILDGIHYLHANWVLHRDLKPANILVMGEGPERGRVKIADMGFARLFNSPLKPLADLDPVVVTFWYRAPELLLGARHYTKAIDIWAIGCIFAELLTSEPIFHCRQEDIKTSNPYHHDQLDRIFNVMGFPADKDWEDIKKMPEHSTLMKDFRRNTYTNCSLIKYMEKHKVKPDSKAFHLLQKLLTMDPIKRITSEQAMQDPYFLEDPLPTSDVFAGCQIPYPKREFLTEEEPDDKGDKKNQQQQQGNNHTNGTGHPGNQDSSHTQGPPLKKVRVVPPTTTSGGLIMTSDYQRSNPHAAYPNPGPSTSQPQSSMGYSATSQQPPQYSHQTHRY

[10] = biological target: T1, Cyclin-dependent kinase 8; test: Binding affinity to CDK8-Flag (unknown origin) transfected in HEK293T cells; format: cell-based
HCT-116 [11] = test: Induction of cell cycle arrest in human HCT-116 cells assessed as increase in cells at G1 phase measured after 48 hrs by flow cytometry; format: functional, cell-based
Homo sapiens [12] = species: Homo sapiens; test: Selectivity ratio of IC50 for human CDK6 to IC50 for human CDK8
CT26 [13] = test: In vivo inhibition of CDK8 in mouse CT26 cells transplanted in […] mouse assessed as downregulation of c-Myc in tumor at 10 to 40 mg/kg, po daily measured after 21 days; format: functional, organism-based; conditions: dose 10-40 mg/kg, time 21.0 day
[14] = Half life in Sprague-Dawley rat at 10 mg/kg, po upto 24 hrs by HPLC analysis; format: ADME, organism-based; conditions: in vivo
HCT-116 [15] = test: Decrease in C-Myc expression in human HCT-116 cells at 1 to 4 uM incubated for 48 hrs by western blotting analysis; format: functional, cell-based; conditions: dose 1-4 µM
[16] = biological target: Cyclin-dependent kinase 6 (Homo sapiens, UniProt Q00534); test: Inhibition of CDK6 (unknown origin) assessed as inhibition rate
Sequence of Cyclin-dependent kinase 6 (Q00534 whole entry): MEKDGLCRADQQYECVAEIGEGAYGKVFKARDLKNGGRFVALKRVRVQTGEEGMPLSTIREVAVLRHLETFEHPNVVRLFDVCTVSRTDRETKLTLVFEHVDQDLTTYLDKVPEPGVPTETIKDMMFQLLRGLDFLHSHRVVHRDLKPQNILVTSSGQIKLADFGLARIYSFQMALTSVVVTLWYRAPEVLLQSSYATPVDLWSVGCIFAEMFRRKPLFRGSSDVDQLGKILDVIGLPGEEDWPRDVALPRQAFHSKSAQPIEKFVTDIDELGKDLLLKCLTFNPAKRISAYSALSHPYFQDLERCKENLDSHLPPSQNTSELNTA

HCT-116 [17] = test: Potency index, ratio of Sorafenib IC50 to test compound IC50 for antiproliferative activity against human HCT-116 cells incubated for 48 hrs by MTT assay; format: functional
HCT-116 [18] = test: Decrease in CTD phosphorylation in human HCT-116 cells at 1 to 4 uM incubated for 48 hrs by western blotting analysis; format: functional, cell-based; conditions: dose 1-4 µM
HCT-116 [19] = test: Decrease in TCF1 expression in human HCT-116 cells at 1 to 4 uM incubated for 48 hrs by western blotting analysis; format: functional, cell-based; conditions: dose 1-4 µM
[20] = Toxicity in ICR mouse assessed as abnormal behavior at 1000 mg/kg, using gastric tube; format: organism-based; conditions: in vivo, po, route ig
[21] = biological target: T1, Cyclin-dependent kinase 8; test: Inhibition of CDK8 in human HCT-116 cells assessed as inhibition of STAT1 phosphorylation at Ser727 by Western blot analysis; format: cell-based
[22] = biological target: T1, Cyclin-dependent kinase 8; test: Binding affinity to CDK8 in human HCT-116 cells assessed as increase in degradation temperature of protein by CETSA (reference value: 49 degC); format: cell-based
Homo sapiens [23] = species: Homo sapiens; test: Selectivity ratio of IC50 for human CDK7 to IC50 for human CDK8
HCT-116 [24] = test: Reduction in P-gp expression in sorafenib-resistant human HCT-116 cells by Western blot analysis; format: functional, cell-based; conditions: dose 1-4 µM, DDE = dose-dependent effect
CT26 [25] = test: In vivo inhibition of CDK8 in mouse CT26 cells transplanted in […] mouse assessed as downregulation of beta-catenin in tumor at 10 to 40 mg/kg, po daily measured after 21 days; format: functional, organism-based; conditions: dose 10-40 mg/kg, time 21.0 day
[26] = biological target: Cyclin-dependent kinase 7 (Homo sapiens, UniProt P50613); test: Inhibition of CDK7 (unknown origin) assessed as inhibition rate
Sequence of Cyclin-dependent kinase 7 (P50613 whole entry): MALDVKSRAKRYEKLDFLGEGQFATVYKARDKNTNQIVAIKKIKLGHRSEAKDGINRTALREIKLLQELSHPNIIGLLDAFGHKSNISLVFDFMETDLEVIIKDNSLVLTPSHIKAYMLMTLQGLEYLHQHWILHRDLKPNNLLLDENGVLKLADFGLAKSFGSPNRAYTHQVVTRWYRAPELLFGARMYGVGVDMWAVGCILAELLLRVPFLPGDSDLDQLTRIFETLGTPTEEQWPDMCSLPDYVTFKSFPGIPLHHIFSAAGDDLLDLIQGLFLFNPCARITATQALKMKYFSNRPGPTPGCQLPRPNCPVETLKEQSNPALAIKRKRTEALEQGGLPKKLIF

CT26 [27] = test: In vivo inhibition of CDK8 in mouse CT26 cells transplanted in […] mouse assessed as upregulation of E2F1 in tumor at 10 to 40 mg/kg, po daily measured after 21 days; format: functional, organism-based; conditions: dose 10-40 mg/kg, time 21.0 day
CT26 [28] = test: Anticancer activity against mouse CT26 cells transplanted in […] mouse assessed as reduction in tumor growth at 10 to 40 mg/kg, po daily measured after 21 days; format: functional, organism-based; conditions: dose 10-40 mg/kg, time 21.0 day
HT-29 = test: Antiproliferative activity against human HT-29 cells assessed as cell viability incubated for 48 hrs by MTT assay; format: functional
HCT-116 [29] = test: Induction of cell cycle arrest in human HCT-116 cells assessed as decrease in CDK6 level incubated for 24 hrs by Western blot analysis; format: functional, cell-based
HCT-116 [30] = test: Decrease in Lef expression in human HCT-116 cells at 1 to 4 uM incubated for 48 hrs by western blotting analysis; format: functional, cell-based; conditions: dose 1-4 µM
[31] = MRT in Sprague-Dawley rat at 2 mg/kg, iv upto 24 hrs by HPLC analysis; format: ADME, organism-based; conditions: in vivo
[32] = Cmax in Sprague-Dawley rat at 2 mg/kg, iv upto 24 hrs by HPLC analysis; format: ADME, organism-based; design: dose 2 mg/kg, time < 24 hrs, route iv; conditions: in vivo
[33] = Toxicity in Balb/c mouse assessed as MPO level in serum at 1000 mg/kg, using gastric tube; format: organism-based; conditions: in vivo, po, route ig
HCT-116 [34] = test: Decrease in beta-catenin/TCF combination expression in human HCT-116 cells transfected with TOPFLASH at 1 to 4 uM incubated for 24 hrs by luciferase assay; format: functional, cell-based; conditions: dose 1-4 µM
[35] = AUC (0 to infinitive) in Sprague-Dawley rat at 2 mg/kg, iv upto 24 hrs by HPLC analysis; format: ADME, organism-based; design: time < 24 hrs, dose 2 mg/kg, route iv; conditions: in vivo
HCT-116 [36] = test: Decrease in beta-catenin expression in human HCT-116 cells at 1 to 4 uM incubated for 12 hrs by western blotting analysis; format: functional, cell-based; conditions: dose 1-4 µM
[37] = Oral bioavailability in Sprague-Dawley rat at 10 mg/kg upto 24 hrs by HPLC analysis; format: ADME, organism-based; conditions: in vivo
[38] = Cmax in Sprague-Dawley rat at 10 mg/kg, po upto 24 hrs by HPLC analysis; format: ADME, organism-based; design: time < 24 hrs, dose 10 mg/kg, route po; conditions: in vivo
HCT-116 [39] = test: Antiproliferative activity against human HCT-116 cells assessed as cell viability incubated for 48 hrs by MTT assay; format: functional
[40] = Toxicity in ICR mouse assessed as liver damage at 1000 mg/kg, using gastric tube by H&E staining assay; format: organism-based; conditions: in vivo, po, route ig
HCT-116 [41] = test: Decrease in LRP6 expression in human HCT-116 cells at 1 to 4 uM incubated for 12 hrs by western blotting analysis; format: functional, cell-based; conditions: dose 1-4 µM
HCT-116 [42] = test: Induction of cell cycle arrest in human HCT-116 cells assessed as increase in E2F1 level incubated for 24 hrs by Western blot analysis; format: functional, cell-based
[43] = biological target: T1, Cyclin-dependent kinase 8; conditions: dose 200.0 nM
[44] = AUC (0 to infinitive) in Sprague-Dawley rat at 10 mg/kg, po upto 24 hrs by HPLC analysis; format: ADME, organism-based; design: dose 10 mg/kg, time < 24 hrs, route po; conditions: in vivo

Nc1ccc(Oc2ccc(NC(=O)Nc3cccc(C(F)(F)F)c3)cc2)cn1
Activity (HCT-116 [1]): Active | Activity [2]: Non-Toxic | Activity (HCT-116 [3]): Active | Tmax [4]: 48 min | GI50 (HCT-116 [5]): 17.5 µM | Activity [6]: Non-Toxic | Activity (HCT-116 [7]): Active | half-life [8]: 30 min | inhibition [9]: Active | Activity [10]: Active | Activity (HCT-116 [11]): Active | Ratio IC50 (Homo sapiens [12]): 2 | Activity (CT26 [13]): Active | half-life [14]: 66 min | Activity (HCT-116 [15]): Active | IC50 [16]: 0.251 µM | Ratio (HCT-116 [17]): 3.6 | Activity (HCT-116 [18]): Active | Activity (HCT-116 [19]): Active | Activity [20]: Non-Toxic | inhibition [21]: Active | Tm [22]: 55 °C | Ratio IC50 (Homo sapiens [23]): 2 | Activity (HCT-116 [24]): Dde | Activity (CT26 [25]): Active | IC50 [26]: 0.0996 µM | Activity (CT26 [27]): Active | Activity (CT26 [28]): Active | GI50 (HT-29): 0.7 µM | Activity (HCT-116 [29]): Active | Activity (HCT-116 [30]): Active | MRT [31]: 54 min | Cmax [32]: 318 ng/mL | Activity [33]: Non-Toxic | Activity (HCT-116 [34]): Active | AUC(0-inf) [35]: 382 ng·h/mL | Activity (HCT-116 [36]): Active | bioavailability [37]: 31.7% | Cmax [38]: 453 ng/mL | GI50 (HCT-116 [39]): 1.2 µM | Activity [40]: Non-Toxic | Activity (HCT-116 [41]): Active | Activity (HCT-116 [42]): Active | inhibition [43]: 73.6% | AUC(0-inf) [44]: 665 ng·h/mL
